Data taken from US20210070748A1, “INHIBITORS OF BRUTONS TYROSINE KINASE” (Pharmacyclics LLC, priority 2015, published 2021).

Experiments:
Assay type in all cases: biochemical
EGFR = EGFR (Homo sapiens, UniProt P00533); test: Inhibition of a panel of kinases, in vitro HotSpot kinase assay: EGFR; settings: D-compounds panel data; 1 μM ATP
Method: (§1) The degree of inhibition of a panel of kinases is determined using the in vitro HotSpot kinase assay (purified enzymes, ^33P-ATP, an appropriate substrate and 1 μM ATP).

TEC = target: T1, TEC (Homo sapiens, UniProt P42680); test: Inhibition of a panel of kinases, in vitro HotSpot kinase assay: TEC; settings: D-compounds panel data; 1 μM ATP
T1 sequence (P42680 1-631): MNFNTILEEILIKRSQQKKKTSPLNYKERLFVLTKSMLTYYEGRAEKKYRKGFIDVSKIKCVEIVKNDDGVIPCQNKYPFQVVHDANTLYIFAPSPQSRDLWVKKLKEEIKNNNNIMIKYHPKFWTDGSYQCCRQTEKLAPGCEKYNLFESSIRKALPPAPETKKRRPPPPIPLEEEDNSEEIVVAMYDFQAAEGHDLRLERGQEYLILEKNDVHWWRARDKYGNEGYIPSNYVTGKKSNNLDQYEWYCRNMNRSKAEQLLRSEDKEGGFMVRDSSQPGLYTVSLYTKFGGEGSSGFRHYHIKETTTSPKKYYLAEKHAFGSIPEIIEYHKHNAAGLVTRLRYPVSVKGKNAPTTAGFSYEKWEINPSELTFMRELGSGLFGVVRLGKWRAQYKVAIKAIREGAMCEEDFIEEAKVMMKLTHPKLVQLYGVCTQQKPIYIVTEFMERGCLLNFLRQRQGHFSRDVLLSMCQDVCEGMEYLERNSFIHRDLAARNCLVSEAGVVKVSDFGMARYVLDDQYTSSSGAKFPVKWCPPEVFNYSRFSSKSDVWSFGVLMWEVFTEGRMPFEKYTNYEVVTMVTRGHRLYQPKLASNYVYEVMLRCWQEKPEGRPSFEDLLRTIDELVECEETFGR
Method: as §1

SRC = SRC (Homo sapiens, UniProt P12931); test: Inhibition of a panel of kinases, in vitro HotSpot kinase assay: SRC; settings: D-compounds panel data; 1 μM ATP
Method: as §1

LCK = LCK (Homo sapiens, UniProt P06239); test: Inhibition of a panel of kinases, in vitro HotSpot kinase assay: LCK; settings: D-compounds panel data; 1 μM ATP; read-out: IC50 LCK
JAK3 = target: T2, JAK3 (Homo sapiens, UniProt P52333); test: Inhibition of a panel of kinases, in vitro HotSpot kinase assay: JAK3; settings: D-compounds panel data; 1 μM ATP; read-out: IC50 JAK3
T2 sequence (P52333 1-1124): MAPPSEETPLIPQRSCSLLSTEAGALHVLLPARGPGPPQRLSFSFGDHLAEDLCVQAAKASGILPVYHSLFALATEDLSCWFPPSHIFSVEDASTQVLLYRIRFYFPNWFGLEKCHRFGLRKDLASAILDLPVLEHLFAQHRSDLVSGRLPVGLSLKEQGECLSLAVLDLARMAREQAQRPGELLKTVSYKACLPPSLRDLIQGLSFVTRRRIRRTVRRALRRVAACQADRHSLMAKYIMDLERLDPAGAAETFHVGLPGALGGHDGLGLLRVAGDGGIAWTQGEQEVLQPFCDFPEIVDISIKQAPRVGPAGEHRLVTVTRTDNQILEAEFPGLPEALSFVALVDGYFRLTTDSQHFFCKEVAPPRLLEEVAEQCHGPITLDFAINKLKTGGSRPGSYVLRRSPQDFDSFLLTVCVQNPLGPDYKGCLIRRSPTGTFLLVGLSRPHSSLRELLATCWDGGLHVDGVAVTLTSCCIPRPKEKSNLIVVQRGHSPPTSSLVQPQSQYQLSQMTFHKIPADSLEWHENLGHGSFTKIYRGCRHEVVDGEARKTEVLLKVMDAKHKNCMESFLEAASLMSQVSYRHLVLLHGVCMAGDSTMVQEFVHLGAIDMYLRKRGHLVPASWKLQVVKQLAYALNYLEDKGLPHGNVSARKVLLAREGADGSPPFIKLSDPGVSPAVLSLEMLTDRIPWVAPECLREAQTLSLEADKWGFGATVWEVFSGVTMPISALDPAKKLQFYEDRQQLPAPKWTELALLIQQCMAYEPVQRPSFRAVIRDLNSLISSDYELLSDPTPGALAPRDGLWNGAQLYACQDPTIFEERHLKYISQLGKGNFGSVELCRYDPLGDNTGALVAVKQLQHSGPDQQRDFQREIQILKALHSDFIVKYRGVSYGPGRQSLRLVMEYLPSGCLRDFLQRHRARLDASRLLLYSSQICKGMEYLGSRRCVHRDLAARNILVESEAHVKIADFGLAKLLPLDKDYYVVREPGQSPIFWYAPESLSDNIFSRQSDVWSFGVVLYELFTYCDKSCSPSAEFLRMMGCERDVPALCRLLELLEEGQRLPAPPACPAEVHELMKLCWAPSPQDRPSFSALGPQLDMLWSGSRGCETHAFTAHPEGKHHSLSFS

Sequence of SRC (P12931 whole entry): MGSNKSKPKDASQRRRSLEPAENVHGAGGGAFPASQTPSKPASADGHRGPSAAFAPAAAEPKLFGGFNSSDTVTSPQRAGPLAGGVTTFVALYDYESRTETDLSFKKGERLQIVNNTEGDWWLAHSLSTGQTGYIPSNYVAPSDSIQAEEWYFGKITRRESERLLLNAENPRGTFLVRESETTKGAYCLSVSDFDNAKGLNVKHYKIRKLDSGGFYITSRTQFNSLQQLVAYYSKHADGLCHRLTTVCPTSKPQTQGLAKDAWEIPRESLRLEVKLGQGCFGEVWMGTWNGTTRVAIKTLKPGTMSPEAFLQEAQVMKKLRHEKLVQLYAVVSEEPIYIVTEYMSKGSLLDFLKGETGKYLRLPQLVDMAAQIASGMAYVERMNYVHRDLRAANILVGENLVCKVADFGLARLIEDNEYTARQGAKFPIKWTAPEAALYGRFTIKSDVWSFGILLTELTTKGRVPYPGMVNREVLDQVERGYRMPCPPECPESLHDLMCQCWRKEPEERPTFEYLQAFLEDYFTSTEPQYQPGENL
Sequence of LCK (P06239 whole entry): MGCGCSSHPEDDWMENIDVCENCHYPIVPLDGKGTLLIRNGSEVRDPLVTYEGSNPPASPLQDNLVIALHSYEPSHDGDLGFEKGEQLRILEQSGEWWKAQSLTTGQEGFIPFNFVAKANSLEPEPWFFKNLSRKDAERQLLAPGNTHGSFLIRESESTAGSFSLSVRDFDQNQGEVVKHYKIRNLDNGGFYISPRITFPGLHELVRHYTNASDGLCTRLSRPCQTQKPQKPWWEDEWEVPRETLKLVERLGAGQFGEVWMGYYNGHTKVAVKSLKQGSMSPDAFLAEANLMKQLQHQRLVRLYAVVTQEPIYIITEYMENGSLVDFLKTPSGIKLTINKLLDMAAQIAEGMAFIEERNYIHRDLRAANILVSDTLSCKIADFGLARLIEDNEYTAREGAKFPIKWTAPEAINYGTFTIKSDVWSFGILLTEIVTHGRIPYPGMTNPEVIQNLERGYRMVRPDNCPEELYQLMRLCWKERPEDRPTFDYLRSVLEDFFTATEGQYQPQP
Sequence of EGFR (P00533 25-1210): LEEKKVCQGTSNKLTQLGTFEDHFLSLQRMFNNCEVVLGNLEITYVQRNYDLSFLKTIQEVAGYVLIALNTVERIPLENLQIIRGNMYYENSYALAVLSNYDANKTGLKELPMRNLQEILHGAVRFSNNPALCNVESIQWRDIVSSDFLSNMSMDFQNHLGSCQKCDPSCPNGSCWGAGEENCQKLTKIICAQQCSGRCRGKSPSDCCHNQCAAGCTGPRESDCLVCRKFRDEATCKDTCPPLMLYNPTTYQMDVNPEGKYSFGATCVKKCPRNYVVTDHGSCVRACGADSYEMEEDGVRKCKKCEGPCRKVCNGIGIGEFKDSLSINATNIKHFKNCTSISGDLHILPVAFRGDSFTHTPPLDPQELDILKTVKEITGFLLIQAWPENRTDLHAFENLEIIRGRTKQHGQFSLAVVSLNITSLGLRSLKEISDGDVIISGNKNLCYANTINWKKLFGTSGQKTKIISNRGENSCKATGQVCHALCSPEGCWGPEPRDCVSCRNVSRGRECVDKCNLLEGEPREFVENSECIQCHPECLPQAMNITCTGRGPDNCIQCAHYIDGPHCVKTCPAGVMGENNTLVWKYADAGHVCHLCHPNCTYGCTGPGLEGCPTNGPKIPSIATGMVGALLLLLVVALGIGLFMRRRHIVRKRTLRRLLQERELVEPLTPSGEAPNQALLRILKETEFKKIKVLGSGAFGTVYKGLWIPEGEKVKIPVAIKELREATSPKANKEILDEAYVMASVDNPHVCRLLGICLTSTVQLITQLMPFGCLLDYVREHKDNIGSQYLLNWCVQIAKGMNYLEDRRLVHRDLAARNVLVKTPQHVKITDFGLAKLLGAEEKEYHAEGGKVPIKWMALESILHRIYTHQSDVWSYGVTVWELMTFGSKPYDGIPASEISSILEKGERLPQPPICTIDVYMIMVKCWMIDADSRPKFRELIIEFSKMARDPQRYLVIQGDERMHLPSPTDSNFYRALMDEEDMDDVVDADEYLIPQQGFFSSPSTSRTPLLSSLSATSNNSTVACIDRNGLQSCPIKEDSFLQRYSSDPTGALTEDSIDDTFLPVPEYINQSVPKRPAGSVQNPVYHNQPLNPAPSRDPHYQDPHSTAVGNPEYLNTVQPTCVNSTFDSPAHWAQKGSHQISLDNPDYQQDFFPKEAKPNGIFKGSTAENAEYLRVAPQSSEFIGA

| SMILES | IC50 (EGFR) | IC50 (TEC) | IC50 (SRC) | IC50 (LCK) | IC50 (JAK3) |
| --- | --- | --- | --- | --- | --- |
| C[C@@H]1[C@H](NC(=O)c2ccc(C(C)(C)O)cc2F)CCCN1c1nnc(C(N)=O)c(Nc2cnn(C)c2)n1 [Example D-308, 3-[(2R,3R)-3-[2-fluoro-4-(2-hydroxypropan-2-yl)benzamido]-2-methylpiperidin-1-yl]-5-[(1-methyl-1H-pyrazol-4-yl)amino]-1,2,4-triazine-6-carboxamide] | 1000 to 10000 nM | ≤ 10 nM | 10 to 100 nM | 10 to 100 nM | 1000 to 10000 nM |
| C[C@@H]1[C@H](NC(=O)c2ccc(C(N)=O)cc2)CCCN1c1cnc(C(N)=O)c(Nc2cnn(C)c2)n1 [Example D-268, 1-N-[(2R,3R)-1-{5-carbamoyl-6-[(1-methyl-1H-pyrazol-4-yl)amino]pyrazin-2-yl}-2-methylpiperidin-3-yl]benzene-1,4-dicarboxamide] | 100 to 1000 nM | ≤ 10 nM | 10 to 100 nM | 10 to 100 nM | 1000 to 10000 nM |
| COCCN(C)c1ccc(C(=O)N[C@@H]2CCCN(c3cnc(C(N)=O)c(Nc4cnn(C)c4)n3)[C@@H]2C)cc1 [Example D-248, 5-[(2R,3R)-3-{4-[(2-methoxyethyl)(methyl)amino]benzamido}-2-methylpiperidin-1-yl]-3-[(1-methyl-1H-pyrazol-4-yl)amino]pyrazine-2-carboxamide] | 100 to 1000 nM | ≤ 10 nM | 10 to 100 nM | 10 to 100 nM | 100 to 1000 nM |
| C[C@@H]1[C@H](NC(=O)c2ccc(C3CC3)cc2)CCCN1c1cnc(C(N)=O)c(NCC2=CCN(C)CC2)n1 [Example D-300, 5-[(2R,3R)-3-(4-cyclopropylbenzamido)-2-methylpiperidin-1-yl]-3-{[(1-methyl-1,2,3,6-tetrahydropyridin-4-yl)methyl]amino}pyrazine-2-carboxamide] | > 10000 nM | > 10000 nM | > 10000 nM | > 10000 nM | > 10000 nM |
| C[C@@H]1[C@H](NC(=O)c2ccc(C(C)(O)CO)cc2)CCCN1c1cnc(C(N)=O)c(Nc2cnn(C)c2)n1 (single isomer, unassigned) [Example D-256] | 100 to 1000 nM | ≤ 10 nM | 10 to 100 nM | 10 to 100 nM | 100 to 1000 nM |
| C[C@@H]1[C@H](NC(=O)c2ccc(C(C)(C)F)cc2)CCCN1c1cnc(C(N)=O)c(Nc2cnn(C)c2)n1 [Example D-251, 5-[(2R,3R)-3-[4-(2-fluoropropan-2-yl)benzamido]-2-methylpiperidin-1-yl]-3-[(1-methyl-1H-pyrazol-4-yl)amino]pyrazine-2-carboxamide] | 1000 to 10000 nM | ≤ 10 nM | 10 to 100 nM | 10 to 100 nM | 1000 to 10000 nM |
| C[C@@H]1[C@H](NC(=O)c2ccc(C(C)(C)O)cc2)CCCN1c1nnc(C(N)=O)c(Nc2cnn(C)c2)n1 [Example D-298, 3-[(2R,3R)-3-[4-(2-hydroxypropan-2-yl)benzamido]-2-methylpiperidin-1-yl]-5-[(1-methyl-1H-pyrazol-4-yl)amino]-1,2,4-triazine-6-carboxamide] | 1000 to 10000 nM | ≤ 10 nM | 10 to 100 nM | 10 to 100 nM | 100 to 1000 nM |
| C[C@@H]1[C@H](NC(=O)c2ccc3ncsc3c2)CCCN1c1cnc(C(N)=O)c(Nc2cnn(C)c2)n1 [Example D-243, N-[(2R,3R)-1-{5-carbamoyl-6-[(1-methyl-1H-pyrazol-4-yl)amino]pyrazin-2-yl}-2-methylpiperidin-3-yl]-1,3-benzothiazole-6-carboxamide] | 1000 to 10000 nM | ≤ 10 nM | 10 to 100 nM | 10 to 100 nM | 100 to 1000 nM |
| C[C@@H]1[C@H](NC(=O)c2ccc3nn(C)cc3c2)CCCN1c1cnc(C(N)=O)c(Nc2cnn(C)c2)n1 [Example D-267, N-[(2R,3R)-1-{5-carbamoyl-6-[(1-methyl-1H-pyrazol-4-yl)amino]pyrazin-2-yl}-2-methylpiperidin-3-yl]-2-methyl-2H-indazole-5-carboxamide] | 100 to 1000 nM | ≤ 10 nM | 10 to 100 nM | 10 to 100 nM | 1000 to 10000 nM |
| C[C@@H]1[C@H](NC(=O)c2ccc3c(c2)CCC(C)(C)O3)CCCN1c1cnc(C(N)=O)c(Nc2cnn(C)c2)n1 [Example D-258, 5-[(2R,3R)-3-(2,2-dimethyl-3,4-dihydro-2H-1-benzopyran-6-amido)-2-methylpiperidin-1-yl]-3-[(1-methyl-1H-pyrazol-4-yl)amino]pyrazine-2-carboxamide] | 1000 to 10000 nM | ≤ 10 nM | 10 to 100 nM | 100 to 1000 nM | 1000 to 10000 nM |
| C[C@@H]1[C@H](NC(=O)c2ccc(C3CC3)cc2F)CCCN1c1cnc(C(N)=O)c(Nc2ccc(N3CCNCC3)c(F)c2)n1 [Example D-313, 5-[(2R,3R)-3-(4-cyclopropyl-2-fluorobenzamido)-2-methylpiperidin-1-yl]-3-{[3-fluoro-4-(piperazin-1-yl)phenyl]amino}pyrazine-2-carboxamide] | 100 to 1000 nM | ≤ 10 nM | 10 to 100 nM | 10 to 100 nM | 100 to 1000 nM |
| C[C@@H]1[C@H](NC(=O)c2ccc(C3CC3)cc2)CCCN1c1cnc(C(N)=O)c(Nc2cnn(C3CCN(CC(F)(F)F)CC3)c2)n1 [Example D-293, 5-[(2R,3R)-3-(4-cyclopropylbenzamido)-2-methylpiperidin-1-yl]-3-({1-[1-(2,2,2-trifluoroethyl)piperidin-4-yl]-1H-pyrazol-4-yl}amino)pyrazine-2-carboxamide] | > 10000 nM | 10 to 100 nM | 10 to 100 nM | > 10000 nM | 1000 to 10000 nM |
| C[C@@H]1[C@H](NC(=O)c2ccc(C3CC3)nc2)CCCN1c1cnc(C(N)=O)c(Nc2ccc(OC3CCN(C)CC3)cc2)n1 [Example D-294, 5-[(2R,3R)-3-(6-cyclopropylpyridine-3-amido)-2-methylpiperidin-1-yl]-3-({4-[(1-methylpiperidin-4-yl)oxy]phenyl}amino)pyrazine-2-carboxamide] | 100 to 1000 nM | ≤ 10 nM | 10 to 100 nM | 10 to 100 nM | 100 to 1000 nM |
| Cc1nc2cc(C(=O)N[C@@H]3CCCN(c4cnc(C(N)=O)c(Nc5cnn(C)c5)n4)[C@@H]3C)ccc2[nH]1 [Example D-261, N-[(2R,3R)-1-{5-carbamoyl-6-[(1-methyl-1H-pyrazol-4-yl)amino]pyrazin-2-yl}-2-methylpiperidin-3-yl]-2-methyl-1H-1,3-benzodiazole-5-carboxamide] | 100 to 1000 nM | ≤ 10 nM | 10 to 100 nM | 10 to 100 nM | 1000 to 10000 nM |
| C[C@@H]1[C@H](NC(=O)c2ccc(C(C)(C)C#N)cc2)CCCN1c1cnc(C(N)=O)c(Nc2ccc(OC3CCN(C)CC3)cc2)n1 [Example D-292, 5-[(2R,3R)-3-[4-(1-cyano-1-methylethyl)benzamido]-2-methylpiperidin-1-yl]-3-({4-[(1-methylpiperidin-4-yl)oxy]phenyl}amino)pyrazine-2-carboxamide] | 100 to 1000 nM | ≤ 10 nM | 10 to 100 nM | 10 to 100 nM | 1000 to 10000 nM |
